Earlier results in publication PMC10532012, “A Putative Role of Vasopressin/Oxytocin-Type Neuropeptide in Osmoregulation and Feeding Inhibition of Apostichopus japonicus” (International Journal of Molecular Sciences, 2023).
“Also recorded” adds a separate entry of the source. Where no end group is shown, it is not given here.

Legend:
[1] = tested on: mammals
From the text: The conservative functions of VP/OT-type neuropeptide in vertebrates have been extensively studied, mainly including water homeostasis, reproduction and social behavior [43, 44, 45]. However, few functional studies of VP/OT-type neuropeptide in deuterostomian invertebrates especially in echinoderms have been reported. Related physiological studies of echinoderm VP/OT-type neu ...

[2] = tested on: longitudinal muscle; conditions: 10^−7–10^−5 M; positive control
Procedure: To investigate the function of holotocin, longitudinal muscle, intestine and tentacle from A. japonicus were prepared. […] Firstly, the longitudinal muscle and intestine of A. japonicus were dissected and cut into strips approximately 20 mm in length. Then, these preparations were put into a 50 mL glass organ bath containing 2 ...

[3] = tested on: C. elegans
Procedure: (§1) Based on the genes/transcripts encoding VP/OT-type neuropeptide signaling identified from protostomian and deuterostomian animals, the physiological effects of VP/OT superfamily signaling were analyzed and compared. In protostomes, multiple physiological functions of VP/OT-type neuropeptides in different Phylum have been characterized.

[4] = tested on: Lasius neglectus; conditions: inotocin signaling
Procedure: as §1

[5] = tested on: rectum; parameters: method as in PMID 12972329

## CYFQNCPRG-NH2 (disulfide) [VP, neurohypophyseal hormone …-NH2]
[1]
  antidiuretic activity: had antidiuretic activity
  blood pressure: increased blood pressure

## CYIQNCPLG-NH2 (disulfide) [OT, neurohypophyseal hormone …-NH2]
[1]
  lactation: stimulated lactation
  uterine contraction: caused the uterine contraction

## NGIWYamide [neuropeptide used as positive control for contraction of longitudinal muscles]
[2]
  contraction of longitudinal muscle, NGIWYamide: reported to cause contraction of longitudinal muscle preparations; also recorded: confirmed to cause contraction of longitudinal muscles

## Nematocin: VP/OT-type neuropeptide in nematode C. elegans (CFLNSCPYRRY; ends and bridges not checked; cysteine pairing not given here; UniProt Q4R128 20-30, looked up)
[3]
  associative learning: neuro-modulatory role in associative learning

## inotocin
[4]
  energy regulation: of vital importance in energy regulation

## octopressin
[5]
  contraction of rectum: tonic contraction
